Reference: PMC10657444, “Design and evaluation of tadpole-like conformational antimicrobial peptides” (Communications Biology, 2023)
≈ marks a conversion by molar mass, not a printed value. Residues, ends and D or L forms follow the SMILES beside them.

How the values were obtained:
[1] = tested on: K. pneumoniae ATCC 700603; test: Scanning electron microscopy; assay type: cell-based, Klebsiella pneumoniae; conditions: 2 × MIC, 60 min
Protocol: (§1) Mid-log phase bacteria (MRSA USA 300 and K. pneumoniae ATCC 700603) grown in LB broth were adjusted to a density of 5 × 10^6 CFU/mL. […] All samples were centrifuged at 8000 rpm for 5 min, washed and then resuspended in PBS. Bacterial cells were fixed with 2.5% glutaraldehyde, and then incubated at 37°C on a glass slide for 20 min. Samples were dehydrated by passing through gradient ethanol (10%, 30%, 50%, 70%, 90%, and 100%) for 5 min at each concentration. Slides were dried with an automatic critical point drying instrument (Leica EM CPD300), and a small amount of gold was sputtered onto the samples using a sputter coater system to avoid charging in the microscope. Finally, the bacteria were visualized under a field-emission scanning electron microscopy (FESEM) device (Sirion 200).

MRSA 3393 = assay type: cell-based, Staphylococcus aureus; conditions: 3393
From the text: (§2) Bacteria were cultivated in Luria-Bertani (LB) broth.

MRSA ATCC 43300 = assay type: cell-based, Staphylococcus aureus; conditions: ATCC 43300
From the text: as §2

MRSA USA 300 [2] = assay type: cell-based, Staphylococcus aureus
From the text: as §2

MRSA USA 300 [3] = test: microbe, parasite or virus in culture; assay type: cell-based, Staphylococcus aureus
Protocol: (§3) MRSA USA 300 and K. pneumoniae ATCC 700603 were employed to assess the development of resistance. From inoculated microtiter panels, an aliquot of the well with the highest concentration permitting growth was taken and back diluted in fresh media to a turbidity of a 0.5 McFarland standard. This suspension was then further diluted and used to inoculate a fresh MIC panel resulting in a final concentration of 5 × 10^6 CFU/mL. Panels were incubated according to CLSI guidelines (M07, 11th edition, 2018), MICs were recorded and the next inoculum was prepared from the well containing the highest concentration of drug that allowed growth in identical fashion as described above.

MRSA USA 300 [4] = test: Scanning electron microscopy; assay type: cell-based, Staphylococcus aureus; conditions: 2 × MIC, 60 min
Protocol: as §1

E. coli ATCC 25922 = assay type: cell-based, Escherichia coli
From the text: as §2

[5] = tested on: K. pneumoniae ATCC 700603; test: microbe, parasite or virus in culture; assay type: cell-based, Klebsiella pneumoniae
Protocol: as §3

[6] = tested on: K. pneumoniae ATCC 700603; test: Transmission electron microscopy; assay type: cell-based, Klebsiella pneumoniae; conditions: 2 × MIC, 60 min
Protocol: The processing method of the samples for transmission electron microscopy (TEM) was the same as the treatment for SEM. The samples were then prefixed with 2.5% glutaraldehyde at 4°C overnight, post-fixed with osmium tetroxide for 70 min, and washed twice with PBS (pH 7.4). Subsequently, the samples were dehydrated for 10 min in a graded ethanol series (30, 50, 70, 90, and 100%) followed by 10 min in a mixture of absolute ethanol and acetone (1:1, v/v) and 10 min in absolute acetone. The specimens were transferred to a mixture of absolute acetone and epoxy resin (1:1, v/v) for 30 min and then to pure epoxy resin overnight at a constant temperature. Finally, the samples were sectioned using an ultramicrotome, stained with uranyl acetate and lead citrate, and then observed by TEM (Hitachi H-7650, Japan).

## CC[C@H](C)[C@H](NC(=O)[C@H](CCCNC(=N)N)NC(=O)[C@H](CCCNC(=N)N)NC(=O)[C@H](CC(C)C)NC(=O)[C@H](Cc1ccccc1)NC(=O)[C@@H](N)CCCNC(=N)N)C(=O)N[C@@H](Cc1ccccc1)C(=O)N[C@@H](Cc1ccccc1)C(=O)N[C@@H](Cc1ccccc1)C(=O)N[C@@H](Cc1ccccc1)C(N)=O [HT2] (H-RFLRRIFFFF-NH2)
[1]
  cell surface morphology by SEM (in words): rough, shrunken, wrinkled and partially damaged
MRSA 3393
  MIC Gram+ MRSA 3393: 1.57 µM (≈ 2.27 µg/mL)
MRSA ATCC 43300
  MIC Gram+ MRSA ATCC 43300: 1.57 µM (≈ 2.27 µg/mL)
MRSA USA 300 [2]
  MIC Gram+ MRSA USA 300: 1.57 µM (≈ 2.27 µg/mL)
MRSA USA 300 [3]; MRSA USA 300, day 0
  Concentration (MIC in drug resistance assay): 3.125 µg/mL
MRSA USA 300 [3]; MRSA USA 300, day 1
  Concentration (MIC in drug resistance assay): 3.125 µg/mL
MRSA USA 300 [3]; MRSA USA 300, day 2
  Concentration (MIC in drug resistance assay): 3.125 µg/mL
MRSA USA 300 [3]; MRSA USA 300, day 3
  Concentration (MIC in drug resistance assay): 3.125 µg/mL
MRSA USA 300 [3]; MRSA USA 300, day 11
  Concentration (MIC in drug resistance assay): 3.125 µg/mL
MRSA USA 300 [3]; MRSA USA 300, day 13
  Concentration (MIC in drug resistance assay): 3.125 µg/mL
MRSA USA 300 [3]; MRSA USA 300, day 22
  Concentration (MIC in drug resistance assay): 12.5 µg/mL
MRSA USA 300 [3]; MRSA USA 300, day 26
  Concentration (MIC in drug resistance assay): 12.5 µg/mL
MRSA USA 300 [3]; MRSA USA 300, day 27
  Concentration (MIC in drug resistance assay): 12.5 µg/mL
MRSA USA 300 [3]; MRSA USA 300, day 28
  Concentration (MIC in drug resistance assay): 12.5 µg/mL
MRSA USA 300 [3]; MRSA USA 300, day 29
  Concentration (MIC in drug resistance assay): 12.5 µg/mL
MRSA USA 300 [3]; MRSA USA 300, day 32
  Concentration (MIC in drug resistance assay): 12.5 µg/mL
MRSA USA 300 [3]; MRSA USA 300, day 33
  Concentration (MIC in drug resistance assay): 12.5 µg/mL
MRSA USA 300 [3]; MRSA USA 300, day 34
  Concentration (MIC in drug resistance assay): 12.5 µg/mL
MRSA USA 300 [3]; MRSA USA 300, day 35
  Concentration (MIC in drug resistance assay): 12.5 µg/mL
MRSA USA 300 [3]; MRSA USA 300, day 37
  Concentration (MIC in drug resistance assay): 12.5 µg/mL
MRSA USA 300 [3]; MRSA USA 300, day 38
  Concentration (MIC in drug resistance assay): 12.5 µg/mL
MRSA USA 300 [3]; MRSA USA 300, day 39
  Concentration (MIC in drug resistance assay): 12.5 µg/mL
MRSA USA 300 [3]; MRSA USA 300, day 40
  Concentration (MIC in drug resistance assay): 12.5 µg/mL
MRSA USA 300 [3]; serial passage at sub-MIC
  increase in MIC after 40 passages: four-fold
MRSA USA 300 [4]
  cell surface morphology by SEM (in words): rough, shrunken, wrinkled and partially damaged
E. coli ATCC 25922
  MIC Gram- E. coli ATCC 25922: 3.13 µM (≈ 4.53 µg/mL)
[5]; K. pneumoniae ATCC 700603, day 0
  Concentration (MIC in drug resistance assay): 6.25 µg/mL
[5]; K. pneumoniae ATCC 700603, day 1
  Concentration (MIC in drug resistance assay): 6.25 µg/mL
[5]; K. pneumoniae ATCC 700603, day 2
  Concentration (MIC in drug resistance assay): 6.25 µg/mL
[5]; K. pneumoniae ATCC 700603, day 3
  Concentration (MIC in drug resistance assay): 12.5 µg/mL
[5]; K. pneumoniae ATCC 700603, day 4
  Concentration (MIC in drug resistance assay): 12.5 µg/mL
[5]; K. pneumoniae ATCC 700603, day 5
  Concentration (MIC in drug resistance assay): 6.25 µg/mL
[5]; K. pneumoniae ATCC 700603, day 6
  Concentration (MIC in drug resistance assay): 6.25 µg/mL
[5]; K. pneumoniae ATCC 700603, day 7
  Concentration (MIC in drug resistance assay): 6.25 µg/mL
[5]; K. pneumoniae ATCC 700603, day 8
  Concentration (MIC in drug resistance assay): 6.25 µg/mL
[5]; K. pneumoniae ATCC 700603, day 9
  Concentration (MIC in drug resistance assay): 6.25 µg/mL
[5]; K. pneumoniae ATCC 700603, day 10
  Concentration (MIC in drug resistance assay): 12.5 µg/mL
[5]; K. pneumoniae ATCC 700603, day 11
  Concentration (MIC in drug resistance assay): 12.5 µg/mL
[5]; K. pneumoniae ATCC 700603, day 12
  Concentration (MIC in drug resistance assay): 12.5 µg/mL
[5]; K. pneumoniae ATCC 700603, day 13
  Concentration (MIC in drug resistance assay): 12.5 µg/mL
[5]; K. pneumoniae ATCC 700603, day 14
  Concentration (MIC in drug resistance assay): 25 µg/mL
[5]; K. pneumoniae ATCC 700603, day 15
  Concentration (MIC in drug resistance assay): 25 µg/mL
[5]; K. pneumoniae ATCC 700603, day 16
  Concentration (MIC in drug resistance assay): 25 µg/mL
[5]; K. pneumoniae ATCC 700603, day 17
  Concentration (MIC in drug resistance assay): 25 µg/mL
[5]; K. pneumoniae ATCC 700603, day 18
  Concentration (MIC in drug resistance assay): 12.5 µg/mL
[5]; K. pneumoniae ATCC 700603, day 19
  Concentration (MIC in drug resistance assay): 25 µg/mL
[5]; K. pneumoniae ATCC 700603, day 20
  Concentration (MIC in drug resistance assay): 25 µg/mL
[5]; K. pneumoniae ATCC 700603, day 21
  Concentration (MIC in drug resistance assay): 25 µg/mL
[5]; K. pneumoniae ATCC 700603, day 22
  Concentration (MIC in drug resistance assay): 12.5 µg/mL
[5]; K. pneumoniae ATCC 700603, day 23
  Concentration (MIC in drug resistance assay): 25 µg/mL
[5]; K. pneumoniae ATCC 700603, day 24
  Concentration (MIC in drug resistance assay): 50 µg/mL
[5]; K. pneumoniae ATCC 700603, day 25
  Concentration (MIC in drug resistance assay): 25 µg/mL
[5]; K. pneumoniae ATCC 700603, day 26
  Concentration (MIC in drug resistance assay): 25 µg/mL
[5]; K. pneumoniae ATCC 700603, day 27
  Concentration (MIC in drug resistance assay): 25 µg/mL
[5]; K. pneumoniae ATCC 700603, day 28
  Concentration (MIC in drug resistance assay): 25 µg/mL
[5]; K. pneumoniae ATCC 700603, day 29
  Concentration (MIC in drug resistance assay): 25 µg/mL
[5]; K. pneumoniae ATCC 700603, day 30
  Concentration (MIC in drug resistance assay): 50 µg/mL
[5]; K. pneumoniae ATCC 700603, day 31
  Concentration (MIC in drug resistance assay): 25 µg/mL
[5]; K. pneumoniae ATCC 700603, day 32
  Concentration (MIC in drug resistance assay): 25 µg/mL
[5]; K. pneumoniae ATCC 700603, day 33
  Concentration (MIC in drug resistance assay): 25 µg/mL
[5]; K. pneumoniae ATCC 700603, day 34
  Concentration (MIC in drug resistance assay): 12.5 µg/mL
[5]; K. pneumoniae ATCC 700603, day 35
  Concentration (MIC in drug resistance assay): 25 µg/mL
[5]; K. pneumoniae ATCC 700603, day 36
  Concentration (MIC in drug resistance assay): 25 µg/mL
[5]; K. pneumoniae ATCC 700603, day 37
  Concentration (MIC in drug resistance assay): 50 µg/mL
[5]; K. pneumoniae ATCC 700603, day 38
  Concentration (MIC in drug resistance assay): 25 µg/mL
[5]; K. pneumoniae ATCC 700603, day 39
  Concentration (MIC in drug resistance assay): 25 µg/mL
[5]; K. pneumoniae ATCC 700603, day 40
  Concentration (MIC in drug resistance assay): 25 µg/mL
[5]; serial passage at sub-MIC
  increase in MIC after 40 passages: four-fold
[6]
  membrane and intracellular structure by TEM (in words): cytoplasmic membranes became blurred and separated
